Results on twelve compounds are retold here after patent publication US11541055B2, “Inhibitors of human immunodeficiency virus replication” (ViiV Healthcare UK (No. 5) LIMITED, priority 2018, dated 2023).

The test system of data set [1] is recombinant NL4-3 virus (Renilla luciferase) in MT-2 cells. The data set can be described thus: HIV cell culture assay (antiviral activity, luciferase readout). Type of data set: cell-based. The settings on record: Renilla, NL43. The gist of the method:
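MT-2 cells were infected with recombinant NL4-3 virus carrying Renilla luciferase in place of part of nef. Cells were cultured 4–5 days with serially diluted compound, and luciferase was measured with a live-cell substrate. EC50 was calculated from the median effect equation.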

A short description of data set [2]: Compound cytotoxicity, XTT-based colorimetric assay. Type of data set: cell-based. The settings on record: human; uninfected MT2 cells, day 4, XTT. Summed up: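 Run under the antiviral-assay protocol but without virus. Viability was read on day 4 and CC50 values were derived from the readout.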
Background: Formazan colour is commonly taken as a measure of viable cells.

A value given as a limit tells only on which side of the number the result lay.

For the compound `CCc1nccnc1-c1ccc2c(=O)n(-c3ccc(Cl)c4c(NS(C)(=O)=O)nn(C)c34)c([C@H](Cc3cc(F)cc(F)c3)NC(=O)Cn3nc(C(F)F)c4c3C(F)(F)[C@@H]3C[C@H]43)nc2c1` (atropisomer, axis not shown; (P)) [Example 17, N—((S)-1-((3P)-3-(4-chloro-1-methyl-3-(methylsulfonamido)-1H-indazol-7-yl)-7-(3-ethylpyrazin-2-yl)-4-oxo-3,4-dihydroquinazolin-2-yl)-2-(3,5-difluorophenyl)ethyl)-2-((3bS,4aR)-3-(difluoromethyl)-5,5-difluoro-3b,4,4a,5-tetrahydro-1H-cyclopropa[3,4]cyclopenta[1,2-c]pyrazol-1-yl)acetamide], the EC50 (in general, the midpoint of the concentration-response curve) in data set [1] was found to be 0.11 nM. In addition, in data set [2], the CC50 (commonly the concentration at which the toxic effect on the cells reaches its halfway point) at 4 days is > 500 nM.

Turning to `Cn1nc(NS(C)(=O)=O)c2c(Cl)ccc(-n3c([C@H](Cc4cc(F)cc(F)c4)NC(=O)Cn4nc(C(F)F)c5c4C(F)(F)[C@@H]4C[C@H]54)nc4cc(-c5ccnc(C6CC6)n5)ccc4c3=O)c21` (atropisomer, axis not shown; (P)) [Example 78, N—((S)-1-((3P)-3-(4-chloro-1-methyl-3-(methylsulfonamido)-1H-indazol-7-yl)-7-(2-cyclopropylpyrimidin-4-yl)-4-oxo-3,4-dihydroquinazolin-2-yl)-2-(3,5-difluorophenyl)ethyl)-2-((3bS,4aR)-3-(difluoromethyl)-5,5-difluoro-3b,4,4a,5-tetrahydro-1H-cyclopropa[3,4]cyclopenta[1,2-c]pyrazol-1-yl)acetamide], in data set [1], the EC50 is 0.16 nM. Besides, the CC50 at 4 days in data set [2] is > 500 nM.

In the case of `Cn1nc(NS(C)(=O)=O)c2c(Cl)ccc(-n3c([C@H](Cc4cc(F)cc(F)c4)NC(=O)Cn4nc(C(F)F)c5c4C(F)(F)[C@@H]4C[C@H]54)nc4cc(-c5cccc(C(F)(F)F)n5)ccc4c3=O)c21` (atropisomer, axis not shown; (P)) [Example 59, N—((S)-1-((3P)-3-(4-chloro-1-methyl-3-(methylsulfonamido)-1H-indazol-7-yl)-4-oxo-7-(6-(trifluoromethyl)pyridin-2-yl)-3,4-dihydroquinazolin-2-yl)-2-(3,5-difluorophenyl)ethyl)-2-((3bS,4aR)-3-(difluoromethyl)-5,5-difluoro-3b,4,4a,5-tetrahydro-1H-cyclopropa[3,4]cyclopenta[1,2-c]pyrazol-1-yl)acetamide], in data set [1], the EC50 stood at 0.12 nM. For the same compound, the CC50 at 4 days in data set [2] was > 500 nM.

For `CCc1cc(-c2ccc3c(=O)n(-c4ccc(Cl)c5c(NS(=O)(=O)C6CC6)nn(CC(F)F)c45)c([C@H](Cc4cc(F)cc(F)c4)NC(=O)Cn4nc(C(F)F)c5c4C(F)(F)[C@@H]4C[C@H]54)nc3c2)nc(C)n1` (atropisomer, axis not shown; (P)) [Example 94, N—((S)-1-((3P)-3-(4-chloro-3-(cyclopropanesulfonamido)-1-(2,2-difluoroethyl)-1H-indazol-7-yl)-7-(6-ethyl-2-methylpyrimidin-4-yl)-4-oxo-3,4-dihydroquinazolin-2-yl)-2-(3,5-difluorophenyl)ethyl)-2-((3bS,4aR)-3-(difluoromethyl)-5,5-difluoro-3b,4,4a,5-tetrahydro-1H-cyclopropa[3,4]cyclopenta[1,2-c]pyrazol-1-yl)acetamide], the EC50 in data set [1] was determined as 0.13 nM. Further, the 50% cytotoxic concentration (CC50) at 4 days in data set [2] was > 500 nM.

Consider `CN(c1cccc(-c2ccc3c(=O)n(-c4ccc(Cl)c5c(NS(=O)(=O)C6CC6)nn(CC(F)F)c45)c([C@H](Cc4cc(F)cc(F)c4)NC(=O)Cn4nc(C(F)F)c5c4C(F)(F)[C@@H]4C[C@H]54)nc3c2)c1)S(C)(=O)=O` (atropisomer, axis not shown) [Example 148, N-[(1S)-1-{3-[4-chloro-3-cyclopropanesulfonamido-1-(2,2-difluoroethyl)-1H-indazol-7-yl]-7-[3-(N-methylmethanesulfonamido)phenyl]-4-oxo-3,4-dihydroquinazolin-2-yl}-2-(3,5-difluorophenyl)ethyl]-2-[(2S,4R)-9-(difluoromethyl)-5,5-difluoro-7,8-diazatricyclo[4.3.0.0^2,^4]nona-1(6),8-dien-7-yl]acetamide], for which the 50% effective concentration (EC50) in data set [1] is 0.28 nM. The CC50 at 4 days in data set [2] is > 500 nM.

On to `COc1cccnc1-c1ccc2c(=O)n(-c3ccc(Cl)c4c(NS(C)(=O)=O)nn(C)c34)c([C@H](Cc3cc(F)cc(F)c3)NC(=O)Cn3nc(C(F)F)c4c3C(F)(F)[C@@H]3C[C@H]43)nc2c1` (atropisomer, axis not shown; (P)) [Example 11, N—((S)-1-((3P)-3-(4-chloro-1-methyl-3-(methylsulfonamido)-1H-indazol-7-yl)-7-(3-methoxypyridin-2-yl)-4-oxo-3,4-dihydroquinazolin-2-yl)-2-(3,5-difluorophenyl)ethyl)-2-((3bS,4aR)-3-(difluoromethyl)-5,5-difluoro-3b,4,4a,5-tetrahydro-1H-cyclopropa[3,4]cyclopenta[1,2-c]pyrazol-1-yl)acetamide], for which the EC50 in data set [1] was 0.12 nM. The 50% cytotoxic concentration (CC50) at 4 days in data set [2] is > 500 nM.

As to `Cc1ccc(-c2ccc3c(=O)n(-c4ccc(Cl)c5c(NS(C)(=O)=O)nn(CC(F)(F)F)c45)c([C@H](Cc4cc(F)cc(F)c4)NC(=O)Cn4nc(C(F)F)c5c4C(F)(F)[C@@H]4C[C@H]54)nc3c2)nn1` (atropisomer, axis not shown) [Example 106, N-[(1S)-1-{3-[4-chloro-3-methanesulfonamido-1-(2,2,2-trifluoroethyl)-1H-indazol-7-yl]-7-(6-methylpyridazin-3-yl)-4-oxo-3,4-dihydroquinazolin-2-yl}-2-(3,5-difluorophenyl)ethyl]-2-[(2S,4R)-9-(difluoromethyl)-5,5-difluoro-7,8-diazatricyclo[4.3.0.0^2,^4]nona-1(6),8-dien-7-yl]acetamide], the EC50 in data set [1] was 0.043 nM. The CC50 at 4 days in data set [2] was > 500 nM.

For `Cn1nc(NS(C)(=O)=O)c2c(Cl)ccc(-n3c([C@H](Cc4cc(F)cc(F)c4)NC(=O)Cn4nc(C(F)F)c5c4C(F)(F)[C@@H]4C[C@H]54)nc4cc(-c5ccccc5OC(F)(F)F)ccc4c3=O)c21` (atropisomer, axis not shown; (P)) [Example 14, N—((S)-1-((3P)-3-(4-chloro-1-methyl-3-(methylsulfonamido)-1H-indazol-7-yl)-4-oxo-7-(2-(trifluoromethoxy)phenyl)-3,4-dihydroquinazolin-2-yl)-2-(3,5-difluorophenyl)ethyl)-2-((3bS,4aR)-3-(difluoromethyl)-5,5-difluoro-3b,4,4a,5-tetrahydro-1H-cyclopropa[3,4]cyclopenta[1,2-c]pyrazol-1-yl)acetamide], the EC50 in data set [1] turned out to be 2.1 nM. For the same compound, in data set [2], the CC50 at 4 days is > 500 nM.

For the compound `COc1nccnc1-c1ccc2c(=O)n(-c3ccc(Cl)c4c(NS(C)(=O)=O)nn(C)c34)c([C@H](Cc3cc(F)cc(F)c3)NC(=O)Cn3nc(C(F)F)c4c3C(F)(F)[C@@H]3C[C@H]43)nc2c1` (atropisomer, axis not shown; (P)) [Example 15, N—((S)-1-((3P)-3-(4-chloro-1-methyl-3-(methylsulfonamido)-1H-indazol-7-yl)-7-(3-methoxypyrazin-2-yl)-4-oxo-3,4-dihydroquinazolin-2-yl)-2-(3,5-difluorophenyl)ethyl)-2-((3bS,4aR)-3-(difluoromethyl)-5,5-difluoro-3b,4,4a,5-tetrahydro-1H-cyclopropa[3,4]cyclopenta[1,2-c]pyrazol-1-yl)acetamide], the EC50 in data set [1] was 0.15 nM. The CC50 at 4 days in data set [2] was > 500 nM.

Turning to `Cc1nc(C)c(-c2ccc3c(=O)n(-c4ccc(Cl)c5c(NS(C)(=O)=O)nn(C)c45)c([C@H](Cc4cc(F)cc(F)c4)NC(=O)Cn4nc(C(F)F)c5c4C(F)(F)[C@@H]4C[C@H]54)nc3c2)s1` (atropisomer, axis not shown; (P)) [Example 6, N—((S)-1-((3P)-3-(4-chloro-1-methyl-3-(methylsulfonamido)-1H-indazol-7-yl)-7-(2,4-dimethylthiazol-5-yl)-4-oxo-3,4-dihydroquinazolin-2-yl)-2-(3,5-difluorophenyl)ethyl)-2-((3bS,4aR)-3-(difluoromethyl)-5,5-difluoro-3b,4,4a,5-tetrahydro-1H-cyclopropa[3,4]cyclopenta[1,2-c]pyrazol-1-yl)acetamide], in data set [1], the EC50 stood at 0.12 nM. For the same compound, the CC50 at 4 days in data set [2] is > 500 nM.

Regarding `CCc1cc(C)nc(-c2ccc3c(=O)n(-c4ccc(Cl)c5c(NS(C)(=O)=O)nn(CC(F)F)c45)c([C@H](Cc4cc(F)cc(F)c4)NC(=O)Cn4nc(C(F)F)c5c4C(F)(F)[C@@H]4C[C@H]54)nc3c2)n1` (atropisomer, axis not shown) [Example 126, N-[(1S)-1-{3-[4-chloro-1-(2,2-difluoroethyl)-3-methanesulfonamido-1H-indazol-7-yl]-7-(4-ethy1-6-methylpyrimidin-2-y1)-4-oxo-3,4-dihydroquinazolin-2-yl}-2-(3,5-difluorophenyl)ethyl]-2-[(2S,4R)-9-(difluoromethyl)-5,5-difluoro-7,8-diazatricyclo[4.3.0.0^2,^4]nona-1(6),8-dien-7-yl]acetamide], the EC50 in data set [1] was 0.12 nM. In data set [2], the CC50 at 4 days is > 500 nM.

With `Cc1ncc(-c2ccc3c(=O)n(-c4ccc(Cl)c5c(NS(C)(=O)=O)nn(CC(F)F)c45)c([C@H](Cc4cc(F)cc(F)c4)NC(=O)Cn4nc(C(F)F)c5c4C(F)(F)[C@@H]4C[C@H]54)nc3c2)s1` (atropisomer, axis not shown) [Example 123, N-[(1S)-1-{3-[4-chloro-1-(2,2-difluoroethyl)-3-methanesulfonamido-1H-indazol-7-yl]-7-(2-methyl-1,3-thiazol-5-yl)-4-oxo-3,4-dihydroquinazolin-2-yl}-2-(3,5-difluorophenyl)ethyl]-2-[(2S,4R)-9-(difluoromethyl)-5,5-difluoro-7,8-diazatricyclo[4.3.0.0^2,^4]nona-1(6),8-dien-7-yl]acetamide], the EC50 in data set [1] is 0.087 nM. Further, in data set [2], the CC50 at 4 days was > 500 nM.
